Experimental data: BigSolDB 2.1

CC(=O)O[C@]1(C(C)=O)CC[C@H]2[C@@H]3C[C@H](C)C4=CC(=O)CC[C@]4(C)[C@H]3CC[C@@]21C
solubility (mole fraction)
Settings | 278.15 K | 283.15 K | 288.15 K | 293.15 K | 298.15 K | 303.15 K | 308.15 K | 313.15 K | 318.15 K | 323.15 K
in acetone | 0.00469 | 0.00547 | 0.00618 | 0.00716 | 0.0083 | 0.00959 | 0.0112 | 0.0126 | 0.0144 | 0.0164
in acetonitrile | 0.00283 | 0.00339 | 0.00397 | 0.00473 | 0.0056 | 0.00664 | 0.00785 | 0.0092 | 0.0109 | 0.013
in ethanol | 0.000465 | 0.000655 | 0.000831 | 0.00106 | 0.00135 | 0.00168 | 0.00211 | 0.00267 | 0.0034 | 0.0043
in ethyl acetate | 0.00327 | 0.00385 | 0.00446 | 0.00515 | 0.00584 | 0.00671 | 0.00773 | 0.00887 | 0.0102 | 0.0118
in isobutanol | 0.000675 | 0.00085 | 0.00121 | 0.00157 | 0.00202 | 0.00269 | 0.00351 | 0.00463 | 0.00611 | 0.00789
in isobutyl acetate | 0.00292 | 0.00334 | 0.0039 | 0.00443 | 0.005 | 0.00574 | 0.00654 | 0.00736 | 0.00849 | 0.00979
in isopropanol | 0.000451 | 0.000651 | 0.000754 | 0.000945 | 0.00126 | 0.00166 | 0.00217 | 0.00281 | 0.00373 | 0.00477
in isopropyl acetate | 0.00234 | 0.00273 | 0.00317 | 0.00367 | 0.00428 | 0.00497 | 0.00567 | 0.00657 | 0.00751 | 0.00866
in methanol | 0.000588 | 0.000719 | 0.000887 | 0.0011 | 0.00135 | 0.00165 | 0.00202 | 0.0025 | 0.00309 | 0.00381
in methyl acetate | 0.00351 | 0.00415 | 0.00479 | 0.00557 | 0.00649 | 0.00748 | 0.00866 | 0.00999 | 0.0115 | 0.0131
in n-butanol | 0.000757 | 0.000978 | 0.00131 | 0.00168 | 0.0022 | 0.00277 | 0.00356 | 0.0046 | 0.0059 | 0.00753
in n-butyl acetate | 0.00296 | 0.0035 | 0.00406 | 0.00462 | 0.00538 | 0.00622 | 0.00716 | 0.00829 | 0.00958 | 0.0111
in n-propanol | 0.000683 | 0.00089 | 0.00114 | 0.00148 | 0.00188 | 0.00245 | 0.0031 | 0.00395 | 0.00508 | 0.00648
in n-propyl acetate | 0.0032 | 0.00384 | 0.00446 | 0.00517 | 0.0059 | 0.00682 | 0.00791 | 0.00917 | 0.0105 | 0.012
